PMC11187126, “Structure and dynamics of the pyroglutamylated RF-amide peptide QRFP receptor GPR103” (Nature Communications, 2024)
Like-named read-outs stand apart in the source and are kept apart here. No end group written: not given here.

Biological target: T1, GPR103 Q318^7.39A (Homo sapiens, UniProt Q96P65, Q318A)
T1 construct: we used human full-length QRFPR-encoding plasmids; expressed in transfected cells; host or cells: HEK293 cells (HEK293A in the flow cytometry section), pCAGGS vector
T1 sequence (Q96P65 1-431 Q318A): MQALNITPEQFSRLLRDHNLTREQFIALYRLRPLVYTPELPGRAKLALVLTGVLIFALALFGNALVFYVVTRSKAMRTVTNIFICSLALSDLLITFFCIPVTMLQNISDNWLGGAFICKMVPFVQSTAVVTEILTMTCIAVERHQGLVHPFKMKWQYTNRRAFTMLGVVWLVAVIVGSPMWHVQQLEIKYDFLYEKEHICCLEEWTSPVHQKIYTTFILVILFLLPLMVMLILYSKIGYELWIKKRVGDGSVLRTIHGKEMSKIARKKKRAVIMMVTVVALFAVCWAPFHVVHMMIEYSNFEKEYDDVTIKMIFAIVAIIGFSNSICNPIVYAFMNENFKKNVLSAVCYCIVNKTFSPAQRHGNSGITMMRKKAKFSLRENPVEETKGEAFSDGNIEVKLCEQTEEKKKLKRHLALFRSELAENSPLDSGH
Assay: TGFα shedding assay; Exp. level WT (1:50)
Type: cell-based
Description: For the TGFα shedding assay and the flow cytometry analysis, we used human full-length QRFPR-encoding plasmids. Specifically, GPR103 was N-terminally modified with an HA signal sequence followed by a FLAG epitope and then a flexible linker ([…]; the FLAG epitope is underlined) and inserted into the pCAGGS vector. Plasmid encoding GPR103 mutants were generated using Quickchange Site-Directed Mutagensis kit (Agilent).
The TGFα shedding assay was performed as described previously with minor modifications. Plasmid transfection was performed in a 6-well plate with a mixture of 500 ng (per well in a 6-well plate) AP-TGFα-encoding plasmid and 200 ng GPR103-encoding plasmid. After 1-day culture, the transfected cells were harvested by trypsinization, pelleted by centrifugation at 190 × g for 5 min, and washed once with 5 mM HEPES (pH 7.4)-containing Hank’s Balanced Salt Solution (HBSS). After centrifugation, the cells were resuspended in 8 mL of the HEPES-containing HBSS. The cell suspension was seeded in a 96-well culture plate (cell plate) at a volume of 90 μL (per well hereafter) and incubated in a 37 °C incubator with 5% CO2 for 30 min. […] After spinning the cell plates at 190 × g for 2 min, 80 μL of conditioned media was transferred to an empty 96-well plate (conditioned media (CM) plate). Then, 80 μL of AP reaction solution (10 mM p-nitrophenylphosphate (p-NPP), 120 mM Tris-HCl (pH 9.5), 40 mM NaCl, and 10 mM MgCl2) was dispensed into the cell plates and the CM plates. Absorbance at 405 nm of the plates was measured using a microplate reader (SpectraMax 340 PC384, Molecular Devices) before and after 1-h incubation at room temperature. Ligand-induced AP-TGFα release was calculated by subtracting spontaneous AP-TGFα release signal from ligand-induced AP-TGFα release signal. The AP-TGFα release signals were fitted to a four-parameter sigmoidal concentration–response curve, using the Prism 10 software (GraphPad Prism). For each replicate experiment, the pEC50 parameter (negative logarithmic values of EC50 values) of the individual GPR103 mutants were normalized to that of the wild-type GPR103 performed in parallel, and resulting ∆pEC50 values were used to denote ligand response activity of the mutants. […]
Exp. le vel: WT (1:5 0)Exp. le vel: WT (1:5 0)Exp. le vel: WT (1:5 0)Exp. le vel: WT (1:2 0)Exp. le vel: WT (1:2 0)Exp. le vel: WT (1:1 0) […]
L1 4N - t e r mA F2 5N - t e r mA I 2 6N - t e r mA Y 2 9N - t e r mA C 9 82 .5 7A T10 22 .6 1A Exp . l eve l: WT (1 :5)Exp . l evel : >WT (1 :1)Exp. le vel: WT (1:2 0)Exp. le vel: WT (1:2 0)Exp. le vel: WT (1:5 0)Exp . l eve l: WT (1 :1) […]
Exp. le vel: WT (1:1 0)Exp. le vel: WT (1:2 0) C 1 1 83 .2 5AExp. le vel: WT (1:5 0)Exp. le vel: WT (1:5 0)Exp. le vel: WT (1:2 0)Exp . l eve l: WT (1 :5) […]
Exp. le vel: WT (1:5 0)Exp. le vel: WT (1:1 0)Exp. le vel: WT (1:5 0) E203ECL2AExp . l evel : >WT (1 :1)Exp. le vel: WT (1:5 0)Exp. le vel: WT (1:5 0) […]
Exp . l eve l: WT (1 :1) F28Exp. le vel: WT (1:5 0) C 2 8 56 .4 7AExp. le vel: WT (1:2 0) WExp. le vel: WT (1:2 0) F28Exp. le vel: WT (1:5 0)Exp . l evel : >WT (1 :1) […]
Exp. le vel: WT (1:5 0)Exp. le vel: WT (1:5 0) C 3 2 77 .4 8AExp . l eve l: WT (1 :5)Exp . l evel : >WT (1 :1)Exp . l evel : >WT (1 :1) […]
Suppl eme nt ary Figure 1 | Mutational analysis of GPR103. […]
mutants. Data are presented as mean values ± SEM, normally n=3-5; dots), each performed in triplicate. b-d Cell-surface expression (b) and QRFP26-in-duced activation of GPR103 (c, d) were analyzed by the flow cytometry and the TGFα shedding assay, respectively. From the concentration–response curves (a), Emax (c) and ΔpEC50 (d) values relative to the wild type were calculated. Colors in the mutant bars indicate an expression level matching to that of titrated wild type. Statistical analyses were performed using the ordinary one-way ANOVA followed by Dunnett tests with the expression-matched […]

Emax (Exp. #1): 14.85 % WT
Emax (Exp. #2): 10.08 % WT
Emax (Exp. #3): 10.26 % WT
Emax (mean, read-out: Emax): 11.7%
EC50 (n = 3): 85.1 nM
Emax (n = 3, read-out: Emax): 11.7 ± 1.3%
Substance: TSGPLGNLAEELNGYSRKKGGFSFRF-NH2 [QRFP26]
